Results on 19 compounds are retold here after ChEMBL document CHEMBL1141443, “Antifibrotic phenanthrenes of Dendrobium nobile stems” (J Nat Prod, 2007).

“And” between values parts separate entries of the source, which are not always exact repeats. Equal values may be shown once. Bounds are passed on as bounds.

In general, IC50 refers to the concentration at which inhibition is half-maximal. Read a high IC50 as weaker potency in that assay.

The test system of data set [1] is Hepatocyte. In words: Cytotoxicity against rat hepatocytes at 10 to 100 uM. Format: cell-based.
Data set [2] in a line: Antiproliferative activity against rat HSC-T6 cells after 48 hrs by MTT assay. Type of data set: functional, cell-based.
[3] abbreviates: Rattus norvegicus, HSC-T6, 48 h.

In the case of `COc1c(O)c(O)cc2ccc3cccc(O)c3c12` [FIMBRIOL B], the Activity result in data set [1] is listed as “Non-toxic”. This compound also registered an IC50 in data set [2] (setting [3]) of 11 µM.
In turn, `O=C(O[C@@H]1Cc2c(O)cc(O)cc2O[C@@H]1c1cc(O)c(O)c(O)c1)c1cc(O)c(O)c(O)c1` [EPIGALOCATECHIN GALLATE] returned an IC50 in data set [2] (setting [3]) of 9.9 µM.
`COc1ccc2c(c1)CCc1c(-c3c(O)c(OC)c(OC)c4c3CCc3cc(OC)ccc3-4)c(O)c(OC)c(OC)c1-2`: in data set [1], the Activity result is given as “Non-toxic”. This compound came in with an IC50 in data set [2] (setting [3]) of 88.2 µM.
With `COC1=CC(=O)c2ccc3cc(OC)cc(O)c3c2C1=O` [DENBINOBIN], the Activity result in data set [1] is reported as “Non-toxic”. The compound further displayed an IC50 in data set [2] (setting [3]) of 15.2 µM.
For the compound `COc1cc2c(c(O)c1OC)-c1ccc(O)cc1CC2` [EPHEMERANTHOL A], the Activity result in data set [1] is on record as “Non-toxic”. Moreover, in data set [2] (setting [3]), the IC50 was determined as 79.2 µM.
The corresponding values for `COc1cc(O)c2c(c1)CCc1cc(O)ccc1-2` [LUSIANTHRIDIN] are “Non-toxic” and 61.2 µM.
Turning to `COc1ccc2c(c1)CCc1cc(O)cc(OC)c1-2` [COELONIN], the Activity result in data set [1] was “Non-toxic”. For the same compound, the concentration for half-maximal inhibition (IC50) in data set [2] (hsc-t6) is 13.4 µM and 69.1 µM.
For `COc1cc2ccc3cccc(O)c3c2c(OC)c1O` [BULBOPHYLLANTHRIN], the Activity result in data set [1] is “Non-toxic”. This compound returned an IC50 in data set [2] (setting [3]) of 50.9 µM.
With `COc1ccc2c(c1)CCc1cc(OC)c(O)c(OC)c1-2`, the Activity entry in data set [1] is listed as “Non-toxic”. The IC50 in data set [2] (setting [3]) was greater than 100 µM.
`COc1ccc2c(ccc3cc(O)c(OC)c(OC)c32)c1O`: the Activity entry in data set [1] is given as “Non-toxic”. The midpoint of inhibition in data set [2] (setting [3]), the IC50, lay at 54.1 µM.
The corresponding values for `COc1ccc2c(ccc3cc(OC)c(O)c(OC)c32)c1` are “Non-toxic” and greater than 100 µM.
For `COc1c(O)cc2ccc3cccc(O)c3c2c1OC`, the Activity entry in data set [1] was “Non-toxic”. Moreover, in data set [2] (setting [3]), the IC50 was greater than 100 µM.
The corresponding values for `COc1c(O)cc2c(c1OC)-c1ccc(O)cc1CC2` [ERIANTHRIDIN] are “Non-toxic” and 73.2 µM.
The corresponding values for `COc1ccc2c(c1O)CCc1cc(O)c(OC)c(OC)c1-2` are “Non-toxic” and 35.7 µM.
With `COc1cc2cc(O)c(O)c(OC)c2c2c(O)cccc12`, in data set [1], the Activity entry is “Non-toxic”. This compound came in with a half-maximal inhibitory concentration (IC50) in data set [2] (setting [3]) of 9 µM.
On to `COc1c(OC)c2cc(O)cc(OC)c2c2c(O)cccc12` [PLICATOL A], for which the Activity entry in data set [1] is “Non-toxic”. This compound also came in with an IC50 in data set [2] (setting [3]) greater than 100 µM.
Turning to `COc1cc(O)c2c(c1)CCc1cccc(O)c1-2`, the Activity result in data set [1] is listed as “Non-toxic”. Further, the IC50 in data set [2] (setting [3]) is greater than 100 µM.
As for `COc1c(O)cc2ccc3cc(O)ccc3c2c1OC` [NUDOL], the Activity entry in data set [1] is “Non-toxic”. Also, the IC50 in data set [2] (setting [3]) is greater than 100 µM.
As to `COc1ccc2c(c1)CCc1cc(O)c(OC)c(OC)c1-2`, in data set [1], the Activity result is “Non-toxic”. The IC50 in data set [2] (setting [3]) was greater than 100 µM.
